We go through 14 compounds from PubChem BioAssay (NCI).

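96-well plates; 48 h exposure; 5 concentrations. Endpoints by linear interpolation between flanking doses. Not reached: highest tested concentration assigned. TGI: total growth inhibition.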 Where a SMILES comes first, the peptide text is derived from it. The star is where a group is joined. Cbz = O=C(OCc1ccccc1)*

Some test systems named below: A498 renal; HL-60(TB) leukemia; HS 578T breast; K-562 leukemia; KM12 colon; LOX IMVI melanoma; MDA-MB-435; MOLT-4 leukemia; NCI-H226 lung; NCI-H23 lung; OVCAR-3 ovarian; OVCAR-5 ovarian; PC-3 prostate; RPMI-8226 leukemia; SN12C renal; SNB-19 CNS; SW-620 colon; TK-10 renal; U251 CNS; SNB-75 CNS.
What all share (assay): NCI tumour cell line growth inhibition, 48 h

For `CC1=C[C@H]([C@H]2C=C(C)C(C(N)=O)=CN2Cc2c(Cl)cccc2Cl)N(Cc2c(Cl)cccc2Cl)C=C1C(N)=O`, the TGI in the experiment with A498 renal, with HL-60(TB) leukemia, in the experiment with HS 578T breast, in the experiment on K-562 leukemia, in the experiment with KM12 colon and in the experiment with LOX IMVI melanoma was more than 75 µM in each case. Further, the TGI in the experiment on MDA-MB-435, with MOLT-4 leukemia, in the experiment with NCI-H226 lung, in the experiment with NCI-H23 lung, with OVCAR-3 ovarian and in the experiment on OVCAR-5 ovarian was more than 75 µM in each case. For the same compound, the TGI with PC-3 prostate, in the experiment on RPMI-8226 leukemia, in the experiment on SN12C renal, in the experiment on SNB-19 CNS, in the experiment on SW-620 colon and in the experiment with TK-10 renal was more than 75 µM each time. The TGI with U251 CNS is more than 75 µM.
Consider `C=CCc1cccc2cc(C(=O)Nc3ccc(C)cc3)c(=N)oc12`, for which the TGI in the experiment with A498 renal, with HL-60(TB) leukemia, in the experiment on HS 578T breast, with K-562 leukemia, in the experiment with KM12 colon and with LOX IMVI melanoma was more than 100 µM in each case. In addition, the TGI in the experiment on MDA-MB-435, in the experiment on MOLT-4 leukemia, in the experiment on NCI-H226 lung, with NCI-H23 lung, in the experiment with OVCAR-3 ovarian and in the experiment on OVCAR-5 ovarian was more than 100 µM each time. The TGI in the experiment with PC-3 prostate, in the experiment with RPMI-8226 leukemia, in the experiment with SN12C renal, in the experiment on SNB-19 CNS, in the experiment on SNB-75 CNS and with SW-620 colon was more than 100 µM each time. In the experiment with U251 CNS, this compound returned a TGI of more than 100 µM.
Take `CC(ON1[C@](C)(c2ccccc2)CC[C@@]1(C)c1ccccc1)c1ccccc1` (stereo not given in full): the TGI in the experiment with HL-60(TB) leukemia was 61.5 µM; with HS 578T breast, more than 100 µM; in the experiment with K-562 leukemia, more than 100 µM; in the experiment on KM12 colon, more than 100 µM; with LOX IMVI melanoma, more than 100 µM; with MDA-MB-435, more than 100 µM. Besides, the TGI was 46.1 µM in the experiment with MOLT-4 leukemia; more than 100 µM with NCI-H226 lung; more than 100 µM in the experiment with NCI-H23 lung; more than 100 µM with OVCAR-3 ovarian; more than 100 µM with OVCAR-5 ovarian; more than 100 µM in the experiment with PC-3 prostate. The TGI with RPMI-8226 leukemia was 58.2 µM; in the experiment on SN12C renal, more than 100 µM; in the experiment on SNB-19 CNS, 93 µM; in the experiment with SNB-75 CNS it was 54.6 µM; in the experiment on SW-620 colon it was more than 100 µM; with TK-10 renal, more than 100 µM. In the experiment on U251 CNS, this compound had a TGI of more than 100 µM.
For `COc1ccc(NC(=O)C(C#N)=C(SC)SC)cc1`, the TGI with A498 renal, with HL-60(TB) leukemia, in the experiment with HS 578T breast, in the experiment with K-562 leukemia, in the experiment with LOX IMVI melanoma and with MDA-MB-435 was more than 100 µM in each case. Besides, the TGI with MOLT-4 leukemia, in the experiment on NCI-H226 lung, with NCI-H23 lung, in the experiment with OVCAR-3 ovarian, with OVCAR-5 ovarian and in the experiment on PC-3 prostate was more than 100 µM throughout. For the same compound, the TGI with RPMI-8226 leukemia, in the experiment with SN12C renal, with SNB-19 CNS, with SW-620 colon, in the experiment with TK-10 renal and with U251 CNS was more than 100 µM throughout.
As to `Cc1nc(C)c(N2CCN(S(N)(=O)=O)CC2)c(=O)[nH]1`, the TGI in the experiment with A498 renal, in the experiment on HL-60(TB) leukemia, with HS 578T breast, in the experiment with K-562 leukemia, with KM12 colon and in the experiment on LOX IMVI melanoma was more than 100 µM throughout. The TGI with MDA-MB-435, with MOLT-4 leukemia, with NCI-H226 lung, with NCI-H23 lung, in the experiment on OVCAR-3 ovarian and in the experiment on PC-3 prostate was more than 100 µM throughout. Besides, the TGI in the experiment on RPMI-8226 leukemia, in the experiment with SN12C renal, in the experiment with SNB-19 CNS, with SW-620 colon, with TK-10 renal and in the experiment with U251 CNS was more than 100 µM each time.
Take `Cc1cn(C2CC(N=[N+]=[N-])C(CO)O2)c(=O)n(CCCCBr)c1=O` (stereo not given): the TGI in the experiment on A498 renal, with HS 578T breast, in the experiment on K-562 leukemia, with KM12 colon, with LOX IMVI melanoma and in the experiment with MDA-MB-435 was more than 100 µM in each case. Further, the TGI in the experiment on MOLT-4 leukemia, with NCI-H226 lung, with NCI-H23 lung, in the experiment on OVCAR-3 ovarian, with OVCAR-5 ovarian and with PC-3 prostate was more than 100 µM each time. Also, the TGI in the experiment with RPMI-8226 leukemia, in the experiment with SN12C renal, in the experiment on SNB-19 CNS, with SNB-75 CNS, in the experiment on SW-620 colon and in the experiment with TK-10 renal was more than 100 µM in each case. This compound also had a TGI in the experiment on U251 CNS of 44.6 µM.
For `CCOC(=O)C(NC(=O)c1ccccc1)(c1ccc(S(=O)(=O)Nc2onc(C)c2C)cc1)C(F)(F)F` (stereo not given), the TGI in the experiment on HL-60(TB) leukemia, with HS 578T breast, with K-562 leukemia, in the experiment with KM12 colon, in the experiment with LOX IMVI melanoma and with MDA-MB-435 was more than 100 µM in each case. Besides, the TGI in the experiment on MOLT-4 leukemia, in the experiment on NCI-H226 lung, in the experiment with NCI-H23 lung, with OVCAR-3 ovarian, in the experiment with OVCAR-5 ovarian and in the experiment on PC-3 prostate was more than 100 µM in each case. Besides, the TGI in the experiment on RPMI-8226 leukemia, in the experiment on SN12C renal, with SNB-19 CNS, in the experiment on SNB-75 CNS, with SW-620 colon and in the experiment with TK-10 renal was more than 100 µM in each case. This compound also had a TGI in the experiment with U251 CNS of more than 100 µM.
`[N-]=[N+]=Nc1c(-c2ccccc2)c(=O)n(-c2ccccc2)c2ccccc12`: the TGI in the experiment on A498 renal, in the experiment on HL-60(TB) leukemia, in the experiment with HS 578T breast, in the experiment on K-562 leukemia, in the experiment on KM12 colon and with LOX IMVI melanoma was more than 100 µM throughout. The TGI in the experiment on MDA-MB-435, in the experiment with MOLT-4 leukemia, in the experiment on NCI-H226 lung, in the experiment on NCI-H23 lung, in the experiment on OVCAR-3 ovarian and with PC-3 prostate was more than 100 µM throughout. Further, the TGI with RPMI-8226 leukemia, in the experiment on SN12C renal, with SNB-75 CNS, with SW-620 colon, with TK-10 renal and in the experiment on U251 CNS was more than 100 µM each time.
As for `CC[C@@H]1CSC(/C=C/C2OC3OC(C)(C)OC3C3OC(C)(C)OC23)=N1` (stereo not given in full), the TGI turned out to be 5.67 µM with HL-60(TB) leukemia; 75.2 µM in the experiment on HS 578T breast; 62.4 µM in the experiment on K-562 leukemia; 33.3 µM in the experiment with KM12 colon; 20.6 µM with LOX IMVI melanoma; 20 µM in the experiment on MDA-MB-435. Further, the TGI in the experiment on MOLT-4 leukemia was 26.6 µM; in the experiment on NCI-H226 lung, 35.9 µM; in the experiment with NCI-H23 lung it was 23.1 µM; in the experiment on OVCAR-3 ovarian, 16.7 µM; with OVCAR-5 ovarian it was 22.8 µM; with PC-3 prostate, 26 µM. The TGI came out at 32.5 µM in the experiment on RPMI-8226 leukemia; 23.9 µM in the experiment on SN12C renal; 54.8 µM with SNB-19 CNS; 29.6 µM in the experiment with SNB-75 CNS; 11.2 µM with SW-620 colon; 14.6 µM in the experiment with TK-10 renal. In the experiment on U251 CNS, this compound displayed a TGI of 26.4 µM.
In the case of `CSc1nc(-c2ccccc2)nc(C(C#N)C#N)n1`, the TGI in the experiment with A498 renal, with HL-60(TB) leukemia, in the experiment with HS 578T breast, with KM12 colon, in the experiment on LOX IMVI melanoma and in the experiment on MDA-MB-435 was more than 100 µM each time. Moreover, the TGI with MOLT-4 leukemia, with NCI-H226 lung, in the experiment with NCI-H23 lung, with OVCAR-3 ovarian, in the experiment on OVCAR-5 ovarian and in the experiment on PC-3 prostate was more than 100 µM throughout. Moreover, the TGI with RPMI-8226 leukemia, with SN12C renal, in the experiment on SNB-19 CNS, in the experiment with SNB-75 CNS, in the experiment on SW-620 colon and in the experiment with TK-10 renal was more than 100 µM each time. The compound further displayed a TGI with U251 CNS of more than 100 µM.
Consider `COC(=O)C(CC(C)C)NC(=O)C(CCCN=C(N)N)NC(=O)OCc1ccccc1` (stereo not drawn) (Cbz-Arg-Leu-OMe; configuration not given here), for which the TGI with HL-60(TB) leukemia, in the experiment on HS 578T breast, with K-562 leukemia, in the experiment on KM12 colon, in the experiment on LOX IMVI melanoma and with MDA-MB-435 was more than 100 µM throughout. In addition, the TGI with MOLT-4 leukemia, in the experiment on NCI-H226 lung, with NCI-H23 lung, with OVCAR-3 ovarian, in the experiment with OVCAR-5 ovarian and with PC-3 prostate was more than 100 µM each time. For the same compound, the TGI with RPMI-8226 leukemia, in the experiment with SN12C renal, with SNB-19 CNS, in the experiment on SNB-75 CNS, in the experiment with SW-620 colon and with TK-10 renal was more than 100 µM throughout. This compound also had a TGI in the experiment with U251 CNS of more than 100 µM.
`OCC(O)COCn1cc(Cn2ncc3c(NCc4ccccc4)ncnc32)nn1` (stereo not given): the TGI with A498 renal is more than 100 µM; in the experiment with HL-60(TB) leukemia it was more than 100 µM; in the experiment with HS 578T breast, 47.9 µM; in the experiment on KM12 colon, more than 100 µM; in the experiment on LOX IMVI melanoma, more than 100 µM; in the experiment with MDA-MB-435, more than 100 µM. Moreover, the TGI in the experiment with MOLT-4 leukemia, in the experiment on NCI-H226 lung, with NCI-H23 lung, with OVCAR-3 ovarian, in the experiment with OVCAR-5 ovarian and in the experiment with PC-3 prostate was more than 100 µM throughout. The TGI in the experiment with RPMI-8226 leukemia, with SN12C renal, in the experiment on SNB-19 CNS, in the experiment on SW-620 colon, in the experiment on TK-10 renal and in the experiment with U251 CNS was more than 100 µM each time.
With `COc1ccc2c(=O)c3c([nH]c2c1)OCC3=O`, the TGI in the experiment with A498 renal, in the experiment on HL-60(TB) leukemia, in the experiment with HS 578T breast, with K-562 leukemia, in the experiment with KM12 colon and with LOX IMVI melanoma was more than 100 µM throughout. Moreover, the TGI with MDA-MB-435, with MOLT-4 leukemia, in the experiment on NCI-H226 lung, in the experiment on NCI-H23 lung, with PC-3 prostate and in the experiment with RPMI-8226 leukemia was more than 100 µM in each case. Also, the TGI with SNB-19 CNS, in the experiment on SNB-75 CNS, in the experiment on SW-620 colon, in the experiment on TK-10 renal and in the experiment with U251 CNS was more than 100 µM each time.
For `O=S(=O)(O)c1cc(S(=O)(=O)O)c2c(N=Nc3ccc(S(=O)(=O)O)c4ccccc34)c(O)ccc2c1`, the TGI in the experiment with HL-60(TB) leukemia, with HS 578T breast, in the experiment on K-562 leukemia, with KM12 colon, in the experiment with LOX IMVI melanoma and in the experiment on MDA-MB-435 was more than 100 µM in each case. Also, the TGI with MOLT-4 leukemia, in the experiment with NCI-H226 lung, in the experiment on NCI-H23 lung, in the experiment on OVCAR-3 ovarian, in the experiment on OVCAR-5 ovarian and in the experiment with PC-3 prostate was more than 100 µM in each case. Moreover, the TGI in the experiment on RPMI-8226 leukemia, with SN12C renal, with SNB-19 CNS, with SNB-75 CNS, in the experiment with SW-620 colon and with TK-10 renal was more than 100 µM each time. Further, in the experiment with U251 CNS, the TGI was more than 100 µM.
